Laboratory results as given in US20040023806A1 (priority 1999, published 2004).

How the values were obtained:
[1] = test system: Phytophthora infestans; format: in vivo; conditions: tomato plants sprayed with 0.02% active substance, infected 24 hours later, assessed 5 days after infection
[2] = test system: Venturia inaequalis; experiment: Residual protective activity against Venturia inaequalis in apples; format: in vivo; conditions: apple seedlings sprayed with 0.02% active substance, infected 24 hours later, assessed 12 days after infection
Procedure: Apple seedlings with fresh shoots 10 to 20 cm long are sprayed to runoff with an aqueous spray liquor (0.02% active substance) prepared from a wettable powder of the active substance and 24 hours later are infected with a conidia suspension of the fungus. The plants are incubated at from 90 to 100 percent relative atmospheric humidity for 5 days and placed in a greenhouse at from 20 to 24° C. for […]. Fungal infestation is assessed 12 days after infection.

[3] = test system: Aphis craccivora; experiment: Activity against Aphis craccivora; format: in vivo; conditions: pea seedlings, spray liquor 100 ppm active substance, 20° C., 3 and 6 days later
Procedure: Pea seedlings are infected with Aphis craccivora and sprayed with a spray liquor containing 100 ppm active substance and incubated at 20° C. 3 and 6 days later, the percentage reduction in the population (% activity) is determined by comparing the number of dead aphids on the treated and untreated plants.

[4] = test system: Cercospora arachidicola; experiment: Residual protective activity against Cercospora arachidicola in peanuts; format: in vivo; conditions: peanut plants sprayed with 0.02% active substance, infected 48 hours later, evaluated 12 days after infection (number and size of leaf spots)
Procedure: Peanut plants 10 to 15 cm high are sprayed to runoff with an aqueous spray liquor (0.02% active substance) prepared from a wettable powder of the active substance and 48 hours later are infected with a conidia suspension of the fungus. The plants are incubated at 21° C. and high atmospheric humidity for 72 hours and then placed in a greenhouse until the typical leaf spots appear. The activity of the active substance is evaluated 12 days after infection, on the basis of the number and size of leaf spots.

CO/N=C(/C(C)=N/OCc1ccccc1NC(=O)OC)c1ccc(F)cc1
melting point: 143 to 144 °C

CCO/N=C(/C(C)=N/N=C/c1ccccc1N(C)C(=O)OC)c1ccc(Oc2ccc(C(F)(F)F)cc2)cc1 [Compound 1 from table a, Methyl N-methyl-[2-({2-ethoxyimino-1-methyl-2-[4-(4-trifluoromethylphenoxy)phenyl]ethylidene}hydrazonomethyl)phenyl]carbamate]
activity [1]: more than 80%
activity [2]: more than 80%

CO/N=C(C)/C(C)=N/OCc1ccccc1NC(=O)OC [Compound 1 from table b, Methyl [2-(2-(E)-methoxyimino-1-methyl-(E)-propylideneaminooxymethyl)phenyl]carbamate]
melting point: 96.5 to 97.5 °C

CCON=C(C(C)=NN=Cc1ccccc1N(COC)C(=O)OC)c1ccc(Oc2ccc(C(F)(F)F)cc2)cc1 [Compound 5 from table a, methyl N-methoxymethyl-[2-({2-ethoxyimino-1-methyl-2-[4-(4-trifluoromethylphenoxy)phenyl]ethylidene}hydrazonomethyl)phenyl]carbamate]
kill rate (% activity, reduction in population) [3]: more than 80%

CCN(C(=O)OC)c1ccccc1CO/N=C(C)/C(C)=N/OC [Compound 7 from table b, Methyl N-ethyl-[2-(2-(E)-methoxyimino-1-methyl-(E)-propylideneaminooxymethyl)phenyl]carbamate]
activity [4]: more than 80%
melting point: 101 to 102 °C
